Read-outs that look alike come from different tables or passages of the source.
Target: T1, GLP-1 receptor (Rattus norvegicus, UniProt P32301)
T1 construct: 96-well assay plate containing RIN m5f cell membranes in an ATP/GTP mixture; endogenous in cells; host or cells: RIN m5f cell membranes
T1 sequence (P32301 22-463): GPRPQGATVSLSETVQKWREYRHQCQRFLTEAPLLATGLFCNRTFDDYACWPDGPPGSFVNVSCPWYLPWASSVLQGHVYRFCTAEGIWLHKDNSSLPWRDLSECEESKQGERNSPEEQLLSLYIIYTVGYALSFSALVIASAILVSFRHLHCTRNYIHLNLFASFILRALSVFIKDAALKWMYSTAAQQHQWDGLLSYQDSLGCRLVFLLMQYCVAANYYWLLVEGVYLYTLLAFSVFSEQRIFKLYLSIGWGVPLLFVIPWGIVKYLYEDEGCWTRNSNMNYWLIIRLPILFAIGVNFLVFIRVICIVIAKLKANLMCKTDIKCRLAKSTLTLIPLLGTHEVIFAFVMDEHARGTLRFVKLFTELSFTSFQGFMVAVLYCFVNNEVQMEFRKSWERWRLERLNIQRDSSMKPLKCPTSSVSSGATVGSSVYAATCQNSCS
Assay: in vitro functional assay at the GLP-1 receptor (cyclase, cAMP production in RIN m5f cell membranes)
Assay type: biochemical
Settings: Table 1, RIN m5f cell membranes, cAMP production (AlphaScreen)
Description: The compounds shown in Table 1 below were analyzed in an in vitro functional assay at the GLP-1 receptor. The assay was conducted as follows: Membrane fractions were prepared from confluent cultures of RIN m5f cells. Compounds were serially diluted with an assay buffer, and then added to a 96-well assay plate containing RIN m5f cell membranes in an ATP/GTP mixture. Cyclase activities were determined by measuring the production of cAMP induced through GLP-1 receptor activation. Quantification of cAMP production was achieved through a competitive chemiluminescence assay with a biotinylated-cAMP probe using Perkin Elmer Fusion™-Alpha Microplate Analyzer (AlphaScreen™ technology). The compound EC50 values were obtained through fitting the concentration-response curves to a four-parameter logistic equation within GraphPad PRISM® software.

[1] = Cyclase GLP-1 Receptor EC50 (nM)

EC50 (read-out: Cyclase GLP-1 Receptor EC50) [nM]	SMILES	EC50 [1] [nM]
1.06	CC[C@H](C)[C@H](NC(=O)[C@H](Cc1ccccc1)NC(=O)[C@H](CC(C)C)NC(=O)[C@H](CCCNC(=N)N)NC(=O)[C@@H](NC(=O)[C@H](C)NC(=O)[C@H](CCC(=O)O)NC(=O)[C@H](CCC(=O)O)NC(=O)[C@H](CCC(=O)O)NC(=O)[C@H](CC(C)C)NC(=O)[C@H](CCC(N)=O)NC(=O)[C@H](CCCCN)NC(=O)[C@H](CO)NC(=O)[C@H](CC(C)C)NC(=O)[C@H](CC(=O)O)NC(=O)[C@H](CO)NC(=O)[C@@H](NC(=O)[C@H](Cc1ccccc1)NC(=O)[C@@H](NC(=O)CNC(=O)[C@@H]1CSCN1C(=O)CNC(=O)[C@@H](N)Cc1c[nH]cn1)[C@@H](C)O)[C@@H](C)O)C(C)C)C(=O)N[C@@H](CCC(=O)O)C(=O)N[C@@H](Cc1ccccc1)C(=O)N[C@@H](CC(C)C)C(=O)N[C@@H](CCCCN)C(=O)N[C@@H](CC(N)=O)C(N)=O [5C]	–
–	CC[C@H](C)[C@H](NC(=O)[C@H](Cc1ccccc1)NC(=O)[C@H](CC(C)C)NC(=O)[C@H](CCCNC(=N)N)NC(=O)[C@@H](NC(=O)[C@H](C)NC(=O)[C@H](CCC(=O)O)NC(=O)[C@H](CCC(=O)O)NC(=O)[C@H](CCC(=O)O)NC(=O)[C@H](CC(C)C)NC(=O)[C@H](CCC(N)=O)NC(=O)[C@H](CCCCN)NC(=O)[C@H](CO)NC(=O)[C@H](CC(C)C)NC(=O)[C@H](CC(=O)O)NC(=O)[C@H](CO)NC(=O)[C@@H](NC(=O)[C@H](Cc1ccccc1)NC(=O)[C@@H](NC(=O)CNC(=O)[C@@H]1CCCN1C(=O)[C@@H](NC(=O)[C@@H](N)Cc1c[nH]cn1)C(C)C)[C@@H](C)O)[C@@H](C)O)C(C)C)C(=O)N[C@@H](CCC(=O)O)C(=O)N[C@@H](Cc1ccccc1)C(=O)N[C@@H](CC(C)C)C(=O)N[C@@H](CCCCN)C(=O)N[C@@H](CC(N)=O)C(N)=O [6C]	152
–	CC[C@H](C)[C@H](NC(=O)[C@H](Cc1ccccc1)NC(=O)[C@H](CC(C)C)NC(=O)[C@H](CCCNC(=N)N)NC(=O)[C@@H](NC(=O)[C@H](C)NC(=O)[C@H](CCC(=O)O)NC(=O)[C@H](CCC(=O)O)NC(=O)[C@H](CCC(=O)O)NC(=O)[C@H](CC(C)C)NC(=O)[C@H](CCC(N)=O)NC(=O)[C@H](CCCCN)NC(=O)[C@H](CO)NC(=O)[C@H](CC(C)C)NC(=O)[C@H](CC(=O)O)NC(=O)[C@H](CO)NC(=O)[C@@H](NC(=O)[C@H](Cc1ccccc1)NC(=O)[C@@H](NC(=O)[C@@H]1CSSC[C@@H](NC(=O)[C@@H](N)Cc2c[nH]cn2)C(=O)N2CCC[C@H]2C(=O)N1)[C@@H](C)O)[C@@H](C)O)C(C)C)C(=O)N[C@@H](CCC(=O)O)C(=O)N[C@@H](Cc1ccccc1)C(=O)N[C@@H](CC(C)C)C(=O)N[C@@H](CCCCN)C(=O)N[C@@H](CC(N)=O)C(N)=O [8B]	1.26
–	CC[C@H](C)[C@H](NC(=O)[C@H](Cc1ccccc1)NC(=O)[C@H](CC(C)C)NC(=O)[C@H](CCCNC(=N)N)NC(=O)[C@@H](NC(=O)[C@H](C)NC(=O)[C@H](CCC(=O)O)NC(=O)[C@H](CCC(=O)O)NC(=O)[C@H](CCC(=O)O)NC(=O)[C@H](CC(C)C)NC(=O)[C@H](CCC(N)=O)NC(=O)[C@H](CCCCN)NC(=O)[C@H](CO)NC(=O)[C@H](CC(C)C)NC(=O)[C@H](CC(=O)O)NC(=O)[C@H](CO)NC(=O)[C@@H](NC(=O)[C@H](Cc1ccccc1)NC(=O)[C@@H](NC(=O)[C@H]1CSSC[C@@H](NC(=O)[C@@H](N)Cc2c[nH]cn2)C(=O)N2CCC[C@H]2C(=O)N1)[C@@H](C)O)[C@@H](C)O)C(C)C)C(=O)N[C@@H](CCC(=O)O)C(=O)N[C@@H](Cc1ccccc1)C(=O)N[C@@H](CC(C)C)C(=O)N[C@@H](CCCCN)C(=O)N[C@@H](CC(N)=O)C(N)=O [8C]	969

Reference: patent US8642544B2, “N-terminus conformationally constrained GLP-1 receptor agonist compounds” (Amylin Pharmaceuticals, LLC, priority 2009, dated 2014)
